Experimental data from ChEMBL document CHEMBL1153424, “Discovery of 4-(benzylaminomethylene)isoquinoline-1,3-(2H,4H)-diones and 4-[(pyridylmethyl)aminomethylene]isoquinoline-1,3-(2H,4H)-diones as potent and selective inhibitors of the cyclin-dependent kinase 4” (J Med Chem, 2009).
pIC50: −log10 of the molar value.

Columns and labels:
[1] = target: Cyclin-dependent kinase 2 (Homo sapiens, UniProt P24941); experiment: Inhibition of CDK2/Cyclin E assessed as inhibition of retinoblastoma susceptibility gene product phosphorylation
[2] = target: Cyclin-dependent kinase 4/cyclin D1 (Homo sapiens, UniProt P11802); experiment: (§1) Inhibition of CDK4/Cyclin D1 assessed as inhibition of retinoblastoma susceptibility gene product phosphorylation; type: protein-complex assay
Chain of Cyclin-dependent kinase 4/cyclin D1 (Homo sapiens, UniProt P11802) (P11802 whole entry): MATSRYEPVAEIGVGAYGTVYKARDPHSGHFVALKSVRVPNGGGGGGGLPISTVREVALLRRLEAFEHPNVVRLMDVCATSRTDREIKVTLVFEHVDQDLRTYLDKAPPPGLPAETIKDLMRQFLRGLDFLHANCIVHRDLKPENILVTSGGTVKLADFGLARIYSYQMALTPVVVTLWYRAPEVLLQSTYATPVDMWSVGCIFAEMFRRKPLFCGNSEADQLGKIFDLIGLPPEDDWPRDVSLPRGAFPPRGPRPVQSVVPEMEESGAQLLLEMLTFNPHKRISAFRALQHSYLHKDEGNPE
Chain of Cyclin-dependent kinase 4/cyclin D1 (Homo sapiens, UniProt P11802) (P24385 whole entry, further chain): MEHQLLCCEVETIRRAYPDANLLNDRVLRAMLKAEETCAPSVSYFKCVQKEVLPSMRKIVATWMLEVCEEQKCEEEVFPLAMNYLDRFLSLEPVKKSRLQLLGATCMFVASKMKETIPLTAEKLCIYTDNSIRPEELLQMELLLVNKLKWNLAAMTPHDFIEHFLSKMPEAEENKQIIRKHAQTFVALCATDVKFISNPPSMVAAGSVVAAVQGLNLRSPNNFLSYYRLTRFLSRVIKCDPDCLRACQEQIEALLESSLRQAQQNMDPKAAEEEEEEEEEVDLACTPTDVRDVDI

[3] = target: Cyclin-dependent kinase 1/cyclin B1 (Homo sapiens, UniProt P06493); experiment: (§2) Inhibition of CDK1/Cyclin B1 assessed as inhibition of retinoblastoma susceptibility gene product phosphorylation
Chain of Cyclin-dependent kinase 1/cyclin B1 (Homo sapiens, UniProt P06493) (P06493 whole entry): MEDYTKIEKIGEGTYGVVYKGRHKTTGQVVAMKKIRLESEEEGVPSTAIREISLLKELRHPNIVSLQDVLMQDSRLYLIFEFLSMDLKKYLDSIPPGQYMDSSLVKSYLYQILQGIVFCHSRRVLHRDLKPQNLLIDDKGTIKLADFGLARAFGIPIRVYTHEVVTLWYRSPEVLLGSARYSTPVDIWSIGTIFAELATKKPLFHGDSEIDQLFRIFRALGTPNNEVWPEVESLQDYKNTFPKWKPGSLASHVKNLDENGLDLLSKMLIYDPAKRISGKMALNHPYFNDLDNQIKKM
Chain of Cyclin-dependent kinase 1/cyclin B1 (Homo sapiens, UniProt P06493) (P14635 whole entry, further chain): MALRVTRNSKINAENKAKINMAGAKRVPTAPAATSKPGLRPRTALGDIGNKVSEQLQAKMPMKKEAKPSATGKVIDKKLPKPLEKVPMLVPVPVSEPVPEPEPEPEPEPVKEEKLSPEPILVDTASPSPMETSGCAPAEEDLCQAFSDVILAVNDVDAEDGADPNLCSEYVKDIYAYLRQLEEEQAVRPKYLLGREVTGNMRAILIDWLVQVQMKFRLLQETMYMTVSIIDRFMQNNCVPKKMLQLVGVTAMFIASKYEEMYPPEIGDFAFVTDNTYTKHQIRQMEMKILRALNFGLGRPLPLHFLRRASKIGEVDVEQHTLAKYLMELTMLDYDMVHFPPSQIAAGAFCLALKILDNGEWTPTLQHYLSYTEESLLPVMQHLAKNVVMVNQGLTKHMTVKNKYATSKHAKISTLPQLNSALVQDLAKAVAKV

[4] = target: Cyclin-dependent kinase 1/cyclin B1 (Homo sapiens, UniProt P06493+P14635); experiment: as §2
Chain of Cyclin-dependent kinase 1/cyclin B1 (Homo sapiens, UniProt P06493+P14635) (P06493 whole entry): as the sequence (P06493 whole entry) above
Chain of Cyclin-dependent kinase 1/cyclin B1 (Homo sapiens, UniProt P06493+P14635) (P14635 whole entry): as the sequence (P14635 whole entry, further chain) above

[5] = Metabolic stability in Sprague-Dawley rat liver microsome assessed as half life after 15 mins using NADPH/UDPGA cofactor; type: ADME; conditions: liver microsomes
MCF7 = experiment: cells; conditions: Homo sapiens, MCF7, 72 h
Description: Cytotoxicity against human MCF7 cells after 3 days by SRB assay

[6] = Metabolic stability in Sprague-Dawley rat liver microsome assessed as half life after 15 mins using NADPH cofactor; type: ADME; conditions: liver microsomes
HCT-116 = experiment: cells; conditions: Homo sapiens, HCT-116, 72 h
Description: Cytotoxicity against human HCT116 cells after 3 days by SRB assay

[7] = target: RAC-alpha serine/threonine-protein kinase (Homo sapiens, UniProt P31749); experiment: Inhibition of AKT
[8] = target: MAP kinase-activated protein kinase 2 (Homo sapiens, UniProt P49137); experiment: Inhibition of MK2
Chain of MAP kinase-activated protein kinase 2 (P49137 whole entry): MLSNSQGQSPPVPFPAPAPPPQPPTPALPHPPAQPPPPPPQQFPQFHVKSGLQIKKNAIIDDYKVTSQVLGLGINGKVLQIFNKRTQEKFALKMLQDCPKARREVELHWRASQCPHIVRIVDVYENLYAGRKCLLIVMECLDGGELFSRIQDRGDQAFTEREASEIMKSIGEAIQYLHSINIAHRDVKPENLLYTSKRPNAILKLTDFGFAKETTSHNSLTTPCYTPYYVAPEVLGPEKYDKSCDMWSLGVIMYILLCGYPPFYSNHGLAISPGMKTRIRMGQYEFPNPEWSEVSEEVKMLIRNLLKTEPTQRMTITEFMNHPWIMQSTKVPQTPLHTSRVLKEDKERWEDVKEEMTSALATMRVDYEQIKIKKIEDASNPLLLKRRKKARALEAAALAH

[9] = target: Tyrosine-protein kinase Lck (Homo sapiens, UniProt P06239); experiment: Inhibition of LCK
Chain of Tyrosine-protein kinase Lck (P06239 whole entry): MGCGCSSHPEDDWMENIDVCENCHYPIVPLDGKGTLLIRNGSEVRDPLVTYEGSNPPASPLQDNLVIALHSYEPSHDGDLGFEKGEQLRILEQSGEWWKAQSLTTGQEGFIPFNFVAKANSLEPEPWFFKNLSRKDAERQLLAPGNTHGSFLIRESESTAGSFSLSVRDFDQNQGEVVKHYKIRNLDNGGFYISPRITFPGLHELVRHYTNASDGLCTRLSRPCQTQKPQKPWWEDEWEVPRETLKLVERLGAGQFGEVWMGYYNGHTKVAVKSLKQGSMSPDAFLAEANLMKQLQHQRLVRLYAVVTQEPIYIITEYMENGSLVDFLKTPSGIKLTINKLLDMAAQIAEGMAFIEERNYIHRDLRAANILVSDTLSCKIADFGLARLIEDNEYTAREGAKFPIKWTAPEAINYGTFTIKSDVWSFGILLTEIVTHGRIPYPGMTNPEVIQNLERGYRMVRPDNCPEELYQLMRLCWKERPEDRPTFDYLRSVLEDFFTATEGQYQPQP

[10] = target: Proto-oncogene tyrosine-protein kinase Src (Homo sapiens, UniProt P12931); experiment: Inhibition of Src
Chain of Proto-oncogene tyrosine-protein kinase Src (P12931 2-536 limits assumed): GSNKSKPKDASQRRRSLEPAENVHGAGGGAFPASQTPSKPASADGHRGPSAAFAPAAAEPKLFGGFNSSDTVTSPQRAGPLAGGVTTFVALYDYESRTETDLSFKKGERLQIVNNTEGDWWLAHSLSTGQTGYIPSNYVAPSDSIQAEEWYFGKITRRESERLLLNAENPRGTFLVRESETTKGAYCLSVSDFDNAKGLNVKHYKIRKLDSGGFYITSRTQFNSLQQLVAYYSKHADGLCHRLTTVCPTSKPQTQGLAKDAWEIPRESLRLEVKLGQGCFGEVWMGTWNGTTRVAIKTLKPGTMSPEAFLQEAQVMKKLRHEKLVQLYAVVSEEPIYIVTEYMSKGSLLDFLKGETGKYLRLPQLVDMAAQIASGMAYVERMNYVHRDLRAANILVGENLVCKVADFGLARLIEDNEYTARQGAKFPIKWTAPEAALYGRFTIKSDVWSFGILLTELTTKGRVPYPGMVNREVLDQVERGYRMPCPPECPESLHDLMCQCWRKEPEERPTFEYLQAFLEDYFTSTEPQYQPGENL

[11] = target: Tyrosine-protein kinase Lyn (Homo sapiens, UniProt P07948); experiment: Inhibition of LYN
[12] = target: Protein kinase C theta type (Homo sapiens, UniProt Q04759); experiment: Inhibition of PKCtheta
[13] = Inhibition of p70S6
[14] = target: Signal transducer and activator of transcription 3 (Homo sapiens, UniProt P40763); experiment: Inhibition of STAT3
[15] = target: Mitogen-activated protein kinase kinase kinase 8 (Homo sapiens, UniProt P41279); experiment: Inhibition of Tpl2
Chain of Mitogen-activated protein kinase kinase kinase 8 (P41279 whole entry): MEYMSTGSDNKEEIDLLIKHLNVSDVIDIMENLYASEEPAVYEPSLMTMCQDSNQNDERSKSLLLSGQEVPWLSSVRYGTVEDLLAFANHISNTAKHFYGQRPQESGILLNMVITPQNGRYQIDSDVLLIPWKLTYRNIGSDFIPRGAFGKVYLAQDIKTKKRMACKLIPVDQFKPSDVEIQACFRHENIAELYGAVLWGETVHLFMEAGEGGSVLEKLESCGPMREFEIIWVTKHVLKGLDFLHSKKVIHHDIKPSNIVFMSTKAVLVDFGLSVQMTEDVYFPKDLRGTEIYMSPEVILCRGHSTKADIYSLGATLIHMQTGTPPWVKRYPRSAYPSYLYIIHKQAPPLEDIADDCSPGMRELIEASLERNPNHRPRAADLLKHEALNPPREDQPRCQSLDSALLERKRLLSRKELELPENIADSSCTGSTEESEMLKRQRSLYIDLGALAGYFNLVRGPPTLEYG

[16] = target: Serine/threonine-protein kinase mTOR (Homo sapiens, UniProt P42345); experiment: Inhibition of mTOR
[17] = Selectivity for CDK4/Cyclin D1 over […]
[18] = Selectivity for CDK4/Cyclin D1 over CDK2/Cyclin E
[19] = target: Cyclin-dependent kinase 4/cyclin D1 (Homo sapiens, UniProt P11802+P24385); experiment: as §1; type: protein-complex assay
Chain of Cyclin-dependent kinase 4/cyclin D1 (Homo sapiens, UniProt P11802+P24385) (P11802 whole entry): as the sequence (P11802 whole entry) above
Chain of Cyclin-dependent kinase 4/cyclin D1 (Homo sapiens, UniProt P11802+P24385) (P24385 whole entry): as the sequence (P24385 whole entry, further chain) above

SMILES | pIC50 [1] | pIC50 [2] | pIC50 [3] | pIC50 (MCF7) | pIC50 (HCT-116) | other results
COc1coc(CN/C=C2\C(=O)NC(=O)c3ccc(Br)cc32)cc1=O | 4.77 | 5.89 | < 4.30 | – | – | –
COCCOc1ccc(CN/C=C2\C(=O)NC(=O)c3ccc(Br)cc32)cc1O | > 4.30 | 7.40 | – | – | – | pIC50 [4]: > 4.30
COc1ccc(CN(C)/C=C2\C(=O)NC(=O)c3ccc(Br)cc32)cc1O | – | – | – | – | – | pIC50 [4]: > 4.30
O=C1NC(=O)c2ccc(Br)cc2/C1=C/NCc1ccc(O)c(O)c1 | > 4.30 | 7.40 | – | – | – | pIC50 [4]: > 4.30
CCCOc1ccc(CN/C=C2\C(=O)NC(=O)c3ccc(I)cc32)nc1O | 6.15 | 7.70 | 5.00 | 5.85 | 6.17 | half-life [5]: > 30 min; half-life [6]: > 30 min
O=C1NC(=O)c2ccc(I)cc2/C1=C/NCc1ccc(-c2ccoc2)c(O)c1 | – | 7.22 | 4.61 | – | – | pIC50 [7]: 4.99; half-life [5]: 18 min; pIC50 [8]: 4.72; pIC50 [9]: < 4.52; pIC50 [10]: < 4.52; pIC50 [11]: 5.07; pIC50 [12]: 4.59; pIC50 [13]: < 4.52; pIC50 [14]: 5.77; half-life [6]: > 30 min; pIC50 [15]: < 5.40; pIC50 [16]: 4.74
O=C1NC(=O)c2ccc(I)cc2/C1=C/NCc1ccc(-c2ccco2)c(O)c1 | – | 7.00 | < 4.30 | 6.15 | 6.42 | –
COc1ccc(C(C)N/C=C2\C(=O)NC(=O)c3ccc(Br)cc32)cc1O (centres undefined) | > 4.30 | 6.43 | – | – | – | pIC50 [4]: > 4.30
O=C1NC(=O)c2ccccc2/C1=C/NCc1cccc(O)c1 | 4.77 | – | – | – | – | pIC50 [4]: > 4.30
COc1cnc(CN/C=C2\C(=O)NC(=O)c3ccc(I)cc32)cc1O | – | 8.00 | 4.83 | 6.00 | 5.89 | half-life [5]: > 30 min; half-life [6]: > 30 min
O=C1NC(=O)c2ccccc2/C1=C/Nc1ccc(O)c(O)c1 | – | 5.11 | – | – | – | –
CCCOc1ccc(CN/C=C2\C(=O)NC(=O)c3ccc(I)cc32)cc1O | 5.59 | 7.70 | < 4.30 | 5.74 | 6.19 | half-life [5]: 15 min; half-life [6]: > 30 min
O=C1NC(=O)c2ccc(I)cc2/C1=C/NCc1cc(O)c(-c2ccoc2)cn1 | – | – | – | 5.57 | 6.26 | half-life [5]: 22 min; half-life [6]: > 30 min
COc1ccc(CN/C=C2\C(=O)NC(=O)c3ccccc32)cc1O | 5.16 | 6.72 | 4.31 | – | – | –
COc1ccc(CN/C=C2\C(=O)NC(=O)c3ccc(-c4ccoc4)cc32)cc1O | 5.96 | 8.70 | – | – | – | –
Cc1ccc(CN/C=C2\C(=O)NC(=O)c3ccc(I)cc32)cc1O | 4.87 | 7.52 | – | 5.09 | 5.17 | –
O=C1NC(=O)c2ccc(I)cc2/C1=C/NCc1ccc(-c2cccnc2)c(O)c1 | – | 8.00 | < 4.30 | 5.96 | 6.36 | –
COc1ccc(CN/C=C2\C(=O)NC(=O)c3ccc(-c4ccccc4)cc32)cc1O | 4.59 | 8.00 | 4.46 | – | – | –
COc1ccc(CN/C=C2\C(=O)NC(=O)c3ccc(Br)cc32)cc1O | > 4.30 | 7.52 | – | – | – | pIC50 [4]: > 4.30; Ratio IC50 [17]: 1600; Ratio IC50 [18]: 1600
CCCOc1ccc(CN/C=C2\C(=O)NC(=O)c3ccc(Br)cc32)cc1O | 4.46 | – | – | – | – | –
CCCOc1cnc(CN/C=C2\C(=O)NC(=O)c3ccc(C4CCCC4)cc32)cc1O | – | > 8.30 | 5.51 | 6.52 | 6.82 | –

SMILES | pIC50 [1] | pIC50 [2] | pIC50 [3] | pIC50 (MCF7) | pIC50 (HCT-116) | other results
CCCOc1cnc(CN/C=C2\C(=O)NC(=O)c3ccc(C(C)(C)C)cc32)cc1O | – | 7.70 | 5.21 | 6.15 | 6.37 | –
COc1cnc(CN/C=C2\C(=O)NC(=O)c3ccc(I)cc32)nc1O | < 4.30 | 6.36 | < 4.30 | < 4.30 | < 4.30 | –
COc1cc(CN/C=C2\C(=O)NC(=O)c3ccc(Br)cc32)cc(O)c1OC | > 4.30 | 8.15 | – | – | – | pIC50 [4]: > 4.30
CCCOc1cnc(CN/C=C2\C(=O)NC(=O)c3ccc(I)cc32)cc1O | – | 7.52 | 4.60 | 6.06 | 6.14 | half-life [5]: > 30 min; half-life [6]: > 30 min
O=C1NC(=O)c2ccccc2/C1=C/NCc1ccc(O)c(O)c1 | – | 5.92 | 4.44 | – | – | –
Nc1ccc(CN/C=C2\C(=O)NC(=O)c3ccc(Br)cc32)cc1O | – | – | – | – | – | pIC50 [4]: > 4.30
COc1ccc(CN/C=C2\C(=O)NC(=O)c3ccc(I)cc32)cc1O | – | – | – | 5.43 | 5.70 | half-life [5]: 6 min; half-life [6]: 18 min
O=C1NC(=O)c2ccc(I)cc2/C1=C/NCc1ccc(-c2ccccn2)c(O)c1 | < 4.30 | 4.71 | < 4.30 | 6.27 | 6.60 | –
COc1ccc(CN/C=C2\C(=O)NC(=O)c3ccc(-c4ccsc4)cc32)cc1O | – | – | – | – | – | Ratio IC50 [17]: 11000; Ratio IC50 [18]: 9000
O=C1NC(=O)c2ccccc2/C1=C/NCc1ccc(O)cc1 | 4.76 | – | – | – | – | pIC50 [19]: > 4.30
O=C1NC(=O)c2ccc(I)cc2/C1=C/NCc1ccc(-c2ccncc2)c(O)c1 | < 4.30 | 8.10 | < 4.30 | 5.82 | 5.64 | –
COc1ccc(CN/C=C2\C(=O)NC(=O)c3ccc(F)cc32)cc1O | 5.18 | – | – | – | – | pIC50 [4]: > 4.30
O=C1NC(=O)c2ccc(Br)cc2/C1=C/NCc1cc[nH]c(=O)c1 | – | – | < 4.30 | – | – | –
COc1ccc(CN/C=C2\C(=O)NC(=O)c3ccc(Cl)cc32)cc1O | > 4.30 | – | – | – | – | pIC50 [4]: > 4.30
O=C1NC(=O)c2ccc(I)cc2/C1=C/NCc1ccc(-c2ccccc2)c(O)c1 | – | – | – | 6.06 | 6.38 | –
CCOc1ccc(CN/C=C2\C(=O)NC(=O)c3ccc(Br)cc32)cc1O | – | – | – | – | – | pIC50 [4]: > 4.30
O=C1NC(=O)c2ccccc2/C1=C/NCCc1ccc(O)c(O)c1 | – | 4.79 | – | – | – | –
CC(C)(C)c1ccc2c(c1)/C(=C/NCc1cc(O)c(-c3ccoc3)cn1)C(=O)NC2=O | – | 7.70 | 5.02 | 5.85 | 6.32 | –
CC(C)(C)c1ccc2c(c1)/C(=C/NCc1cc(O)c(-c3ccccc3)cn1)C(=O)NC2=O | – | 7.52 | – | 6.15 | 6.82 | –
COc1ccc(CN/C=C2\C(=O)NC(=O)c3ccc(-n4cccc4)cc32)cc1O | 5.51 | – | – | – | – | –
O=C1NC(=O)c2ccc(C3CCCC3)cc2/C1=C/NCc1cc(O)c(-c2ccoc2)cn1 | – | > 8.30 | 5.51 | 6.08 | 6.09 | –
